# Measured values: ChEMBL document CHEMBL5244269, “Improving metabolic stability and removing aldehyde oxidase liability in a 5-azaquinazoline series of IRAK4 inhibitors” (Bioorg Med Chem, 2020)
# What was measured:
# [1] = tested on: SUD4; assay: Growth inhibition of human SU-DHL-4 cells at 10 uM incubated for 3 days in presence of 0.17 uM acalabrutinib relative to control; assay type: functional; conditions: SU-DHL-4, 72 h, time 3 day, read-out: GI
# [2] = tested on: OCI-Ly10; assay: Growth inhibition of human OCILY10 cells at 0.33 uM incubated for 3 days (Rvb= -3%); assay type: functional; conditions: OCI-Ly10, 72 h, time 3 day, read-out: GI
# [3] = tested on: OCI-Ly10; assay: Growth inhibition of human OCILY10 cells at 0.17 uM incubated for 3 days in presence of 0.017 uM acalabrutinib relative to control; assay type: functional; conditions: OCI-Ly10, 72 h, time 3 day, read-out: GI
# [4] = target: T1, Phosphatidylinositol 4,5-bisphosphate 3-kinase catalytic subunit delta isoform (Homo sapiens, UniProt O00329); assay: Inhibition of PI3Kdelta (unknown origin) in presence of […] uM ATP
# T1 sequence (O00329 whole entry): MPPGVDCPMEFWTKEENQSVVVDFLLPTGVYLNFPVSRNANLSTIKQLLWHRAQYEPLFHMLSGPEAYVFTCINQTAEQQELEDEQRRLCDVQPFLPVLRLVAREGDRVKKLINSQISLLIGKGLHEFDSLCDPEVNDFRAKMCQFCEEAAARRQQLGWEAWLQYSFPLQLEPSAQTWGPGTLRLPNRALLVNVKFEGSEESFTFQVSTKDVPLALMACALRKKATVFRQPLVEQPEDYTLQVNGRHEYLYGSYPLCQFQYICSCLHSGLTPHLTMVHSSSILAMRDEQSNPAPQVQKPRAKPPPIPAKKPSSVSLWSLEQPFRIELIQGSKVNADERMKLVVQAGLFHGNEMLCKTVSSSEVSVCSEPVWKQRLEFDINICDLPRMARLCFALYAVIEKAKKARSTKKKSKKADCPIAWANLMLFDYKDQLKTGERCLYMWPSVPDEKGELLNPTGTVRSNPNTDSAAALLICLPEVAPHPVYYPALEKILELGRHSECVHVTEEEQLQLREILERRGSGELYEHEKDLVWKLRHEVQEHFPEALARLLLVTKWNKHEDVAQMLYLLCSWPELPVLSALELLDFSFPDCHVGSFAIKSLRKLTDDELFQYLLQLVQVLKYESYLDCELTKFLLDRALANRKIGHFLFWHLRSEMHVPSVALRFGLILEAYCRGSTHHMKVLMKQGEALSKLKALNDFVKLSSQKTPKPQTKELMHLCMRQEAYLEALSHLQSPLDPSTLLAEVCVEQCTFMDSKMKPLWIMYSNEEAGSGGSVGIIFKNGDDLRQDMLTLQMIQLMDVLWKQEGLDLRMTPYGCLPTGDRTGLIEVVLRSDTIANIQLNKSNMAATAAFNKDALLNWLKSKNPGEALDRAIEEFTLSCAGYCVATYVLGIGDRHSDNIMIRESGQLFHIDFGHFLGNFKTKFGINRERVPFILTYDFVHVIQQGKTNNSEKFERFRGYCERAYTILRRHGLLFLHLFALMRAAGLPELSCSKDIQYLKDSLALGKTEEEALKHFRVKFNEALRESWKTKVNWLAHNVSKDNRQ
# [5] = Apparent permeability across apical to basolateral side in human Caco-2 cells measured for 360 mins by liquid scintillation counting based analysis; assay type: ADME, cell-based
# [6] = target: High affinity nerve growth factor receptor (Homo sapiens, UniProt P04629); assay: Inhibition of TRKA (unknown origin) in presence of 400 uM ATP
# [7] = tested on: SUD4; assay: Growth inhibition of human SU-DHL-4 cells at 10 uM incubated for 3 days in presence of 0.003 uM acalabrutinib relative to control; assay type: functional; conditions: SU-DHL-4, 72 h, time 3 day, read-out: GI
# [8] = target: Interleukin-1 receptor-associated kinase 1 (Homo sapiens, UniProt P51617); assay: Inhibition of IRAK1 (unknown origin) in presence of 25 uM ATP
# [9] = tested on: OCI-Ly10; assay: Growth inhibition of human OCILY10 cells at 1.7 uM incubated for 3 days in presence of 0.33 uM acalabrutinib relative to control; assay type: functional; conditions: OCI-Ly10, 72 h, time 3 day, read-out: GI
# [10] = target: T2, Interleukin-1 receptor-associated kinase 4 (Homo sapiens, UniProt Q9NWZ3); assay: Inhibition of IRAK4 (unknown origin) in presence of ATP by enzymatic assay
# T2 sequence (Q9NWZ3 whole entry): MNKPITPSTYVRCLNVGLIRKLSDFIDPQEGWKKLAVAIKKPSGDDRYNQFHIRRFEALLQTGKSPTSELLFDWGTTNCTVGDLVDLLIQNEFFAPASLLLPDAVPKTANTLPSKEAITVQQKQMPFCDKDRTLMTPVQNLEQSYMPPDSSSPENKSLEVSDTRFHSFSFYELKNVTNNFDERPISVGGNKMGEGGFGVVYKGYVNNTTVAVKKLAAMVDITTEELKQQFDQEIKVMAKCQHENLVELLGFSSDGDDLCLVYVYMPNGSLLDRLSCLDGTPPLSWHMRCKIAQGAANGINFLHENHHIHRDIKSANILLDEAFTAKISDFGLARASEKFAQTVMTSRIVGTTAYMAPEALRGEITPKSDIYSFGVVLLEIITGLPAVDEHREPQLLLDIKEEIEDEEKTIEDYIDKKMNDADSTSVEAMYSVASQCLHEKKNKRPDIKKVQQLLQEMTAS
# [11] = tested on: OCI-Ly10; assay: Growth inhibition of human OCILY10 cells at 10 uM incubated for 3 days (Rvb= -3%); assay type: functional; conditions: OCI-Ly10, 72 h, time 3 day, read-out: GI
# [12] = target: BDNF/NT-3 growth factors receptor (Homo sapiens, UniProt Q16620); assay: Inhibition of TRKB (unknown origin) in presence of 25 uM ATP
# [13] = tested on: SUD4; assay: Growth inhibition of human SU-DHL-4 cells at 10 uM incubated for 3 days in presence of 0.33 uM acalabrutinib relative to control; assay type: functional; conditions: SU-DHL-4, 72 h, time 3 day, read-out: GI
# [14] = tested on: OCI-Ly10; assay: Growth inhibition of human OCILY10 cells at 3.3 uM incubated for 3 days in presence of 0.033 uM acalabrutinib relative to control; assay type: functional; conditions: OCI-Ly10, 72 h, time 3 day, read-out: GI
# [15] = tested on: SUD4; assay: Growth inhibition of human SU-DHL-4 cells at 0.33 uM incubated for 3 days in presence of 0.33 uM acalabrutinib relative to control; assay type: functional; conditions: SU-DHL-4, 72 h, time 3 day, read-out: GI
# [16] = tested on: OCI-Ly10; assay: Growth inhibition of human OCILY10 cells at 0.33 uM incubated for 3 days in presence of 0.17 uM acalabrutinib relative to control; assay type: functional; conditions: OCI-Ly10, 72 h, time 3 day, read-out: GI
# [17] = target: NT-3 growth factor receptor (Homo sapiens, UniProt Q16288); assay: Inhibition of TRKC (unknown origin) in presence of 50 uM ATP
# [18] = Aqueous solubility in pH 7.4 phosphate buffer; assay type: physicochemical
# [19] = Metabolic stability in human hepatocytes assessed as intrinsic clearance measured per 10^6 cells; assay type: ADME, cell-based, Hepatocyte; conditions: read-out: CLH
# [20] = Lipophilicity, LogD at pH 7.4 of the compound by shake flask method; assay type: physicochemical; conditions: buffer
# [21] = tested on: OCI-Ly10; assay: Growth inhibition of human OCILY10 cells at 3.3 uM incubated for 3 days (Rvb= -3%); assay type: functional; conditions: OCI-Ly10, 72 h, time 3 day, read-out: GI
# [22] = tested on: SUD4; assay: Growth inhibition of human SU-DHL-4 cells at 3.3 uM incubated for 3 days in presence of 0.33 uM acalabrutinib relative to control; assay type: functional; conditions: SU-DHL-4, 72 h, time 3 day, read-out: GI
# [23] = tested on: SUD4; assay: Growth inhibition of human SU-DHL-4 cells at 0.17 uM incubated for 3 days (reference value: -1%); assay type: functional; conditions: SU-DHL-4, 72 h, time 3 day, read-out: GI
# [24] = tested on: SUD4; assay: Growth inhibition of human SU-DHL-4 cells at 0.33 uM incubated for 3 days (reference value: -1%); assay type: functional; conditions: SU-DHL-4, 72 h, time 3 day, read-out: GI
# Chain of BDNF/NT-3 growth factors receptor (Q16620 whole entry): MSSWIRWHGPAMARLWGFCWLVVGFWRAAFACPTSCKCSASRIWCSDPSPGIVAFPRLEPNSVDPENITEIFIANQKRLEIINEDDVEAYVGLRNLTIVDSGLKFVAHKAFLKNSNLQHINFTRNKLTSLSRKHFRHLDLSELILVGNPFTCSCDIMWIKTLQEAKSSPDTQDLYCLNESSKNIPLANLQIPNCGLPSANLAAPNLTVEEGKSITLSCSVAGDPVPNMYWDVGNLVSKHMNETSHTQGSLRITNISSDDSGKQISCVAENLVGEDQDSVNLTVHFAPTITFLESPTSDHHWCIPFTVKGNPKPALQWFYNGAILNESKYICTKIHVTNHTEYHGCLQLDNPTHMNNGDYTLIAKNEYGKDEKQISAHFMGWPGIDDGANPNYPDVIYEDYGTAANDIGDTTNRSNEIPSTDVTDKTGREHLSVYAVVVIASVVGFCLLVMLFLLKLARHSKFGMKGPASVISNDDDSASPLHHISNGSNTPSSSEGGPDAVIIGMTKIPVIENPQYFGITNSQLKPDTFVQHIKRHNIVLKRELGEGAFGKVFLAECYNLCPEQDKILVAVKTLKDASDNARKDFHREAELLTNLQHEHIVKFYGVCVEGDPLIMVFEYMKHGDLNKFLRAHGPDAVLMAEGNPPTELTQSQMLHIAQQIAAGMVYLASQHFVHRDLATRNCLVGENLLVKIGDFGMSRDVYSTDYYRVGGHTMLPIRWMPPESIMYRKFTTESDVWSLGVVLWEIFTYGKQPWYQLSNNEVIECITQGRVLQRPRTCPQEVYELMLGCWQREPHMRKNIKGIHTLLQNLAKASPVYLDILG
# Chain of Interleukin-1 receptor-associated kinase 1 (P51617 whole entry): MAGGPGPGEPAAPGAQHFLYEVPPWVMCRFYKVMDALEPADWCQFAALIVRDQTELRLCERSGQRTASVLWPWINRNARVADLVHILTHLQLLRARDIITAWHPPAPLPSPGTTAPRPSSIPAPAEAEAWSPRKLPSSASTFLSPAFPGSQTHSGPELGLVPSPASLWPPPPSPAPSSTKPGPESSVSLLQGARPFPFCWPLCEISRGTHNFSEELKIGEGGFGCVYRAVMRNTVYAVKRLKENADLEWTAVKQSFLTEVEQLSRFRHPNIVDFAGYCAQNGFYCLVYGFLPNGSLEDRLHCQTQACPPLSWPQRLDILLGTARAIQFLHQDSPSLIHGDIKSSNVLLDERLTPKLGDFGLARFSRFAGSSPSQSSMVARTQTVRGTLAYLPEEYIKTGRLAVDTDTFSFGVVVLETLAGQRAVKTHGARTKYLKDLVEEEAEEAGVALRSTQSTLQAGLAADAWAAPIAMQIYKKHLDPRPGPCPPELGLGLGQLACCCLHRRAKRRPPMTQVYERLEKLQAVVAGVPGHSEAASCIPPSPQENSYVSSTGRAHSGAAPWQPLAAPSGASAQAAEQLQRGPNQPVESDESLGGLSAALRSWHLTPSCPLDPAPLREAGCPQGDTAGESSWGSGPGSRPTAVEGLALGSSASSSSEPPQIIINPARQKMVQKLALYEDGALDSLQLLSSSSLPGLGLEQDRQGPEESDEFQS
# Chain of High affinity nerve growth factor receptor (P04629 whole entry): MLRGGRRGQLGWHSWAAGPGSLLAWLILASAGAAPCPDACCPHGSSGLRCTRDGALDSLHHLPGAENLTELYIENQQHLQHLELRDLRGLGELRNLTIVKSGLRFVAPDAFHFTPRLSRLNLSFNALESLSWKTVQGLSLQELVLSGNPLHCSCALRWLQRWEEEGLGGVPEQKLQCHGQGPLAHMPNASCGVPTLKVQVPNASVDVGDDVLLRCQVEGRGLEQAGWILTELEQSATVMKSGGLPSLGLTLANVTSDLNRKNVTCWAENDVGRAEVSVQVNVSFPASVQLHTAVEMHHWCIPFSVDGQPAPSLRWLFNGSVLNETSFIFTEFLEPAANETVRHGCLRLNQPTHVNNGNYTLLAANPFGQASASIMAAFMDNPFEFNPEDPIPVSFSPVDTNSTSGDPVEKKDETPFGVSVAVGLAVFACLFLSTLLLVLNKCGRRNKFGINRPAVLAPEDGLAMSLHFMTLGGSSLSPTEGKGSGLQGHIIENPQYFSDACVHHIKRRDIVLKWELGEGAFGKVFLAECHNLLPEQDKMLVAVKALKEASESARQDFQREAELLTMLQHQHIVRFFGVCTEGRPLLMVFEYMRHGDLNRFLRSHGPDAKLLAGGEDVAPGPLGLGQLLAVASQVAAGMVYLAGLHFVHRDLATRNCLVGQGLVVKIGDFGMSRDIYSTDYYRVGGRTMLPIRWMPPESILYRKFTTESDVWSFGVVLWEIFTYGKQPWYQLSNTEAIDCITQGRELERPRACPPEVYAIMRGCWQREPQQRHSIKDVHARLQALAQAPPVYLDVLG
# Chain of NT-3 growth factor receptor (Q16288 whole entry): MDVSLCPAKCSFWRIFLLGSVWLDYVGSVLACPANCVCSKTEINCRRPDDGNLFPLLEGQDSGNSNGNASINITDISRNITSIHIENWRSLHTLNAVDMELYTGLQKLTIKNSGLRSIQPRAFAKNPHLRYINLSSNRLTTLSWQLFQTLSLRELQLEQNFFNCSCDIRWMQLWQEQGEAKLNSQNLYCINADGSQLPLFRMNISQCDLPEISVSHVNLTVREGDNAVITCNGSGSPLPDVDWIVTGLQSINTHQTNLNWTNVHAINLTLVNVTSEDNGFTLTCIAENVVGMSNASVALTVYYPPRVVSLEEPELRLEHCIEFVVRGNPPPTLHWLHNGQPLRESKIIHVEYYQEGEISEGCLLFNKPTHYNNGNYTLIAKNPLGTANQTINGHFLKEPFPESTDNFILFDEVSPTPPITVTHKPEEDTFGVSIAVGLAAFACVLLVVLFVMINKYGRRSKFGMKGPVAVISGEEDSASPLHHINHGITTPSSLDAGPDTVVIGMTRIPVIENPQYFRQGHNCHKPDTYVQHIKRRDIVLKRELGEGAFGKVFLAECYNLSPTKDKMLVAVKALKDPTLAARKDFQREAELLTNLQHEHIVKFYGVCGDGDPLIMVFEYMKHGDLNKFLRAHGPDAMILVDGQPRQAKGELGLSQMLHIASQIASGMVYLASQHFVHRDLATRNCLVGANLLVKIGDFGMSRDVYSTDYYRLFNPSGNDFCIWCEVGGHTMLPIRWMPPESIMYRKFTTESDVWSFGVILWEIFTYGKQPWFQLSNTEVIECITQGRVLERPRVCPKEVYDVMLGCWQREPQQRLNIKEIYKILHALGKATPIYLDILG
Compound,inhibition of growth at 10 µM [1],inhibition of growth at 0.33 µM [2],inhibition of growth at 0.17 µM [3],IC50 [4],Papp A→B at 6 h [5],IC50 [6],inhibition of growth at 10 µM [7],IC50 [8],inhibition of growth at 1.7 µM [9],IC50 [10],inhibition of growth at 10 µM [11],IC50 [12],inhibition of growth at 10 µM [13],inhibition of growth at 3.3 µM [14],inhibition of growth at 0.33 µM [15],inhibition of growth at 0.33 µM [16],IC50 [17],solubility [18],hepatocyte CLint [19],inhibition of growth at 3.3 µM [22],other results
Cc1ncc(-c2nc3c(NC(C)C)nc(Nc4cnn(C5CC6(C5)CN(C)C6)c4)nc3cc2F)cn1,7%,35%,97%,230 nM,7.7 ×10⁻⁶ cm/s,480 nM,7%,1200 nM,195%,2 nM,157%,930 nM,10%,196%,6%,185%,570 nM,> 1000 µM,< 1 µL/min/1e6 cells,7%,logD [20]: 1.9; inhibition of growth at 3.3 µM [21]: 105%
CC[C@@H]1[C@H](F)C(=O)N[C@@H]1COc1nccc2cc(C(N)=O)c(OC)cc12 [ZIMLOVISERTIB],3%,–,93%,–,–,–,2%,–,170%,–,–,–,7%,139%,6%,171%,–,–,–,6%,inhibition of growth at 0.17 µM [23]: 1%; inhibition of growth at 0.33 µM [24]: 1%
Cc1ncc(-c2nc3c(OC4(C)CC4)nc(Nc4cnn(C5CCN(C)CC5)c4)nc3cc2F)cn1,-1%,8%,92%,53 nM,31 ×10⁻⁶ cm/s,270 nM,1%,1400 nM,193%,3 nM,148%,760 nM,0%,194%,-1%,169%,270 nM,800 µM,< 1 µL/min/1e6 cells,-2%,inhibition of growth at 0.17 µM [23]: -2%; inhibition of growth at 0.33 µM [24]: -1%; logD [20]: 2.6; inhibition of growth at 3.3 µM [21]: 76%
